Data: paper PMC11997881, “Comprehensive Characterization of Bruton’s Tyrosine Kinase Inhibitor Specificity, Potency, and Biological Effects: Insights into Covalent and Noncovalent Mechanistic Signatures” (ACS Pharmacology & Translational Science, 2025)
pIC50: −log10 of the molar value.

Key:
[1] = target: EGFR (Homo sapiens, UniProt P00533); assay: scanMAX binding POC, EGFR; conditions: 1 μM
[2] = target: ERBB2 (Homo sapiens, UniProt P04626); assay: scanMAX binding POC, ERBB2; conditions: 1 μM
[3] = target: T1, TEC (Homo sapiens, UniProt P42680); assay: scanMAX binding POC, TEC; conditions: 1 μM
T1 sequence (P42680 1-631): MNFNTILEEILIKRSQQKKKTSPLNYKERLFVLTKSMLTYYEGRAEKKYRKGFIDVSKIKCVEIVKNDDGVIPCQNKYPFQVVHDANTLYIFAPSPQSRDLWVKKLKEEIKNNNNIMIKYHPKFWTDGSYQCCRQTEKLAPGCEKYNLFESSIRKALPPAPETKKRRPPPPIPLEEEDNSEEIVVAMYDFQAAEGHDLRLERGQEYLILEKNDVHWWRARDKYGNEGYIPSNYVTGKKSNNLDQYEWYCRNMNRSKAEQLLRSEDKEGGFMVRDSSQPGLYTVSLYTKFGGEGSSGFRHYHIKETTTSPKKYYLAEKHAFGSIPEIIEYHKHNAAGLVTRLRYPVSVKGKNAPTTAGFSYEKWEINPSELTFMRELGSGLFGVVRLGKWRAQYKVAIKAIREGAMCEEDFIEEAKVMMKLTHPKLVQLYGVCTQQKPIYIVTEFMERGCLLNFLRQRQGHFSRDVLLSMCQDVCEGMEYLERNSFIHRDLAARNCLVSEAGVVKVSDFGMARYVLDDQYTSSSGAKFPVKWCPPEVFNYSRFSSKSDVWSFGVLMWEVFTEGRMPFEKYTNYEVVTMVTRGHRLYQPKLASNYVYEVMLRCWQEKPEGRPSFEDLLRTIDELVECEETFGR
From the text: (§1) Comprehensive Characterization of Bruton’s Tyrosine Kinase Inhibitor Specificity, Potency, and
(§2) Biological Effects: Insights into Covalent and Non-Covalent Mechanistic Signatures
(§3) Antonia C. Darragh1, Andrew M. Hanna1, Justin H. Lipner2, Alastair J. King2, Nicole B. Servant1, Mirza Jahic1*
(§4) *To whom correspondence should be addressed: Mirza Jahic, e-mail address: Mirza.Jahic@discovery.eurofinsus.com
(§5) Supporting Table S1. Comparison of BTK inhibitor specificity to TEC family members. TEC family members are
(§6) Burton’s tyrosine kinase (BTK), tyrosine kinase expressed in hepatocellular carcinoma (TEC), bone marrow-
(§7) expressed kinase (BMX/ETK), and T cell-expressed kinase (TXK/RLK), and interleukin-2-inducible T cell kinase
(§8) A zero POC signifies that the compound

[4] = target: T2, TXK (Homo sapiens, UniProt P42681); assay: scanMAX binding POC, TXK; conditions: 1 μM
T2 sequence (P42681 1-527): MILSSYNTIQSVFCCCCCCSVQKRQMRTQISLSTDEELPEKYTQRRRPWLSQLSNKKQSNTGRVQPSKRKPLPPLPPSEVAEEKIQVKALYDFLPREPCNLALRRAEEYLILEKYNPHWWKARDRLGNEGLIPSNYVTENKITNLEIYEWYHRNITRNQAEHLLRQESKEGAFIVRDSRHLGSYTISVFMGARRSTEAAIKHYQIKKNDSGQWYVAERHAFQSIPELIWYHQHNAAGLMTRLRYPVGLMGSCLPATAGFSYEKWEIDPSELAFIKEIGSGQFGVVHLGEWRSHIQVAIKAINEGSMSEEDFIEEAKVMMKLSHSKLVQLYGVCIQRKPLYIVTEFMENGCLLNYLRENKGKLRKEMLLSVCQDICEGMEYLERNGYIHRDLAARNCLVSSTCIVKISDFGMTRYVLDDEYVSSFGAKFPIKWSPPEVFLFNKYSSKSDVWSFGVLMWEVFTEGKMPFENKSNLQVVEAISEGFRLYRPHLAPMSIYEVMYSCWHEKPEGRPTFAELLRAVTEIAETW
From the text: as §1, §2, §3, §4, §5, §6, §7, §8

[5] = target: ERBB4 (Homo sapiens, UniProt Q15303); assay: scanMAX binding POC, ERBB4; conditions: 1 μM
[6] = target: JNK1 (MAPK8) (Homo sapiens, UniProt P45983); assay: scanMAX binding POC, JNK1; conditions: 1 μM
Protocol: (§9) The compounds were diluted directly into the assays such that the final concentration of DMSO was 0.9%. No enzyme purification steps were performed on the protein extracts before adding them to the reaction mixture, and the protein extracts were diluted 10,000-fold in the final reaction mixture (the final DNA-tagged enzyme concentration was less than 0.1 nM). Binding assay mixtures were incubated at 25 °C with shaking for 1 h. […] The concentration of wild-type or mutant BTK in the eluates was then determined using quantitative PCR. […] Each assay’s affinity ligand concentration on the magnetic beads has been optimized to ensure that the true thermodynamic Kd values for competitor molecules were measured, as described in detail previously99.
(§10) Comparison of BTK inhibitor specificity to c-Jun N-terminal kinases (JNK1-3/MAPKP8-10).
(§11) a The percent of control (POC) is the percent of kinase that was competed off its control ligand relative to the positive and negative controls at the screening concentration56. A zero POC signifies that the compound

[7] = target: JNK3 (MAPK10) (Homo sapiens, UniProt P53779); assay: scanMAX binding POC, JNK3; conditions: 1 μM
Protocol: as §9, §10, §11

[8] = target: BLK (Homo sapiens, UniProt P51451); assay: scanMAX binding POC, BLK; conditions: 1 μM
[9] = target: T3, ITK (Homo sapiens, UniProt Q08881); assay: scanMAX binding POC, ITK; conditions: 1 μM
T3 sequence (Q08881 1-620): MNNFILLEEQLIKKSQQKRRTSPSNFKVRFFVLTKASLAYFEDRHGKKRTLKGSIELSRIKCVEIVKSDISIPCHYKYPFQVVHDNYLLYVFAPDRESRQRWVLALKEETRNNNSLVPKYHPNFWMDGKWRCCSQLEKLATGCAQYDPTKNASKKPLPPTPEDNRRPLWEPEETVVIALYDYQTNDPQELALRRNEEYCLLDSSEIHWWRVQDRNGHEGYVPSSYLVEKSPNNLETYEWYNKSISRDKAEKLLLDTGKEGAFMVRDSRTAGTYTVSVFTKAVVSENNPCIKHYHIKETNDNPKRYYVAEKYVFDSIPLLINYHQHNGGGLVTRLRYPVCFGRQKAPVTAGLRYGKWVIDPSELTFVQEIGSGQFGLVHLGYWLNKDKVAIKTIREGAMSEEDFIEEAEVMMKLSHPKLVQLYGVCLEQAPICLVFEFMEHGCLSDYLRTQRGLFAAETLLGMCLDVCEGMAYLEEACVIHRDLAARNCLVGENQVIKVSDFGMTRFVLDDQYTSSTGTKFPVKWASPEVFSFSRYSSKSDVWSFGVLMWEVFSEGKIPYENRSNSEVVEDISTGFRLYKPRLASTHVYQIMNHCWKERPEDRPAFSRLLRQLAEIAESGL
From the text: as §1, §2, §3, §4, §5, §6, §7, §8

[10] = target: ERBB3 (Homo sapiens, UniProt P21860); assay: scanMAX binding POC, ERBB3; conditions: 1 μM
[11] = target: JNK2 (MAPK9) (Homo sapiens, UniProt P45984); assay: scanMAX binding POC, JNK2; conditions: 1 μM
Protocol: as §9, §10, §11

[12] = target: T4, BTK (Homo sapiens, UniProt Q06187); assay: scanMAX binding POC, BTK; conditions: 1 μM; zero POC = competition comparable to positive control
T4 construct: host or cells: transiently transfected HEK293 cells
From the text: as §1, §2, §3, §4, §5, §6, §7, §8

[13] = target: T5, MKK7 (Homo sapiens, UniProt O14733); assay: scanMAX binding POC, MKK7; conditions: 1 μM
T5 sequence (O14733 1-419): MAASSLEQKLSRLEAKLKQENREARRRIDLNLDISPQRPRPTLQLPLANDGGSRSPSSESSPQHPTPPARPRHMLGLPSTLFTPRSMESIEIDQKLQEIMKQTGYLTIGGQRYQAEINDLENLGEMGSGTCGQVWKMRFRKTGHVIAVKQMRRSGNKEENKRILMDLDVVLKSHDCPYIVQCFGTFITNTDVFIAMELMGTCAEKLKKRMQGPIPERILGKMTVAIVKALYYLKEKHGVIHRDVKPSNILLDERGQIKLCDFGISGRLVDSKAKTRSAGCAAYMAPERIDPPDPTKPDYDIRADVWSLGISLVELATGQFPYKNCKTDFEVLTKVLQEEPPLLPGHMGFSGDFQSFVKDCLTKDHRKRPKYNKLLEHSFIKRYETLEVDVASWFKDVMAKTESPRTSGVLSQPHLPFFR

[14] = target: T6, JAK3 (JH1 catalytic domain) (Homo sapiens, UniProt P52333); assay: scanMAX binding POC, JAK3; conditions: 1 μM
T6 construct: The JAK3 POC is for its JH1 catalytic domain

[15] = target: T7, BMX (Homo sapiens, UniProt P51813); assay: scanMAX binding POC, BMX; conditions: 1 μM
T7 sequence (P51813 1-675): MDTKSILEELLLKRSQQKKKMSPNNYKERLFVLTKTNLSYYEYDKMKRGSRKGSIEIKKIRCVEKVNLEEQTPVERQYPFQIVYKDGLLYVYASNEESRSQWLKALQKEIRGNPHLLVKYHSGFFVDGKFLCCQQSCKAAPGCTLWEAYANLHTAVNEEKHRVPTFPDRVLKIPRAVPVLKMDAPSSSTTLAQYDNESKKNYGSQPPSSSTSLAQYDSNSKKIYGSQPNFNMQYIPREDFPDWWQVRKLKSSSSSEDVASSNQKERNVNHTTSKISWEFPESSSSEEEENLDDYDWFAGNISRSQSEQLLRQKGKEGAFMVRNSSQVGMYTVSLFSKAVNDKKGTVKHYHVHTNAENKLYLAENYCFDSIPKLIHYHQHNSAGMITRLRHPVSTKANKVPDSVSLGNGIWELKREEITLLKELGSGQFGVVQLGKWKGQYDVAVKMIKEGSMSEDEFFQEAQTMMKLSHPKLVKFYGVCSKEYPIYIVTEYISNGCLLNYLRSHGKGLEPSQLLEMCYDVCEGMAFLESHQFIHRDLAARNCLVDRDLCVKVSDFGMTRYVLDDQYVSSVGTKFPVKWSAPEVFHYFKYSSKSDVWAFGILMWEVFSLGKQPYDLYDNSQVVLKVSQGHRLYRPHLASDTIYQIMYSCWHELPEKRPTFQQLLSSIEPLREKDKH
From the text: as §1, §2, §3, §4, §5, §6, §7, §8

[16] = system: patients with R/R MCL; design: method as in NCT03494179; conditions: ref NCT03494179; cited from earlier work
[17] = system: 468 kinases/kinase domains; conditions: scanMAX at 1 μM, POC <35
Protocol: The compounds were diluted directly into the assays such that the final concentration of DMSO was 0.9%. No enzyme purification steps were performed on the protein extracts before adding them to the reaction mixture, and the protein extracts were diluted 10,000-fold in the final reaction mixture (the final DNA-tagged enzyme concentration was less than 0.1 nM). Binding assay mixtures were incubated at 25 °C with shaking for 1 h. […] The concentration of wild-type or mutant BTK in the eluates was then determined using quantitative PCR.

[18] = system: BTK; conditions: cited from earlier work

Chain of EGFR (P00533 25-1210): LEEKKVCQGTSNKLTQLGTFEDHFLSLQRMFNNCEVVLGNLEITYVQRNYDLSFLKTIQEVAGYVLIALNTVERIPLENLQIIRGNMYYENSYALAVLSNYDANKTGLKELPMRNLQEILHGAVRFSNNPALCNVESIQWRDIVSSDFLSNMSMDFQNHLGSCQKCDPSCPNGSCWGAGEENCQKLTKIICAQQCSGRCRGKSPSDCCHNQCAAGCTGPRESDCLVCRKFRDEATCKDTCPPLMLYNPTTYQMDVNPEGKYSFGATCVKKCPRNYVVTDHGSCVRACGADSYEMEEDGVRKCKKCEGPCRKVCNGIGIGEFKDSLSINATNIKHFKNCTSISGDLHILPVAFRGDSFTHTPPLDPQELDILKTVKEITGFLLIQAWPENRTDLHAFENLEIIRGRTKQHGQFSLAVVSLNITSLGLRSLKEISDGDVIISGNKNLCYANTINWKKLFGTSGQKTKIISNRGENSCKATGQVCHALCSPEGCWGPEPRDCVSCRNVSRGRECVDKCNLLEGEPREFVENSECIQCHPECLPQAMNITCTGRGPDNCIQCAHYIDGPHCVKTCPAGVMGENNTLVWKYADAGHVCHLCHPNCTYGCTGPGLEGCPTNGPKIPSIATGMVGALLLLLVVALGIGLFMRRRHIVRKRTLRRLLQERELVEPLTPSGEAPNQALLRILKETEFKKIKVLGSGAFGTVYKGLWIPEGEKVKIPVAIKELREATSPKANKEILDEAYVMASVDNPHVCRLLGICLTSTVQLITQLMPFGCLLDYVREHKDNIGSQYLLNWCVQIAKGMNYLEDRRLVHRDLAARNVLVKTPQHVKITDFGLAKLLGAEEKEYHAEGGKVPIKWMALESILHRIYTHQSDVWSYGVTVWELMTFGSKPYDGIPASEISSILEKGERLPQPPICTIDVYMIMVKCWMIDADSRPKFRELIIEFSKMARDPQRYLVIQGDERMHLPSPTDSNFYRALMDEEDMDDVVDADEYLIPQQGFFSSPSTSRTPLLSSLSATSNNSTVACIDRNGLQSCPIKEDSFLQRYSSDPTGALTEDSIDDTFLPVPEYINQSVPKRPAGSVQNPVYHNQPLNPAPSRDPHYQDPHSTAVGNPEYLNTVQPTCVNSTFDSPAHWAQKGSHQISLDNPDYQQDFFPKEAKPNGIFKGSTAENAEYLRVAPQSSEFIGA
Chain of ERBB2 (P04626 23-1255): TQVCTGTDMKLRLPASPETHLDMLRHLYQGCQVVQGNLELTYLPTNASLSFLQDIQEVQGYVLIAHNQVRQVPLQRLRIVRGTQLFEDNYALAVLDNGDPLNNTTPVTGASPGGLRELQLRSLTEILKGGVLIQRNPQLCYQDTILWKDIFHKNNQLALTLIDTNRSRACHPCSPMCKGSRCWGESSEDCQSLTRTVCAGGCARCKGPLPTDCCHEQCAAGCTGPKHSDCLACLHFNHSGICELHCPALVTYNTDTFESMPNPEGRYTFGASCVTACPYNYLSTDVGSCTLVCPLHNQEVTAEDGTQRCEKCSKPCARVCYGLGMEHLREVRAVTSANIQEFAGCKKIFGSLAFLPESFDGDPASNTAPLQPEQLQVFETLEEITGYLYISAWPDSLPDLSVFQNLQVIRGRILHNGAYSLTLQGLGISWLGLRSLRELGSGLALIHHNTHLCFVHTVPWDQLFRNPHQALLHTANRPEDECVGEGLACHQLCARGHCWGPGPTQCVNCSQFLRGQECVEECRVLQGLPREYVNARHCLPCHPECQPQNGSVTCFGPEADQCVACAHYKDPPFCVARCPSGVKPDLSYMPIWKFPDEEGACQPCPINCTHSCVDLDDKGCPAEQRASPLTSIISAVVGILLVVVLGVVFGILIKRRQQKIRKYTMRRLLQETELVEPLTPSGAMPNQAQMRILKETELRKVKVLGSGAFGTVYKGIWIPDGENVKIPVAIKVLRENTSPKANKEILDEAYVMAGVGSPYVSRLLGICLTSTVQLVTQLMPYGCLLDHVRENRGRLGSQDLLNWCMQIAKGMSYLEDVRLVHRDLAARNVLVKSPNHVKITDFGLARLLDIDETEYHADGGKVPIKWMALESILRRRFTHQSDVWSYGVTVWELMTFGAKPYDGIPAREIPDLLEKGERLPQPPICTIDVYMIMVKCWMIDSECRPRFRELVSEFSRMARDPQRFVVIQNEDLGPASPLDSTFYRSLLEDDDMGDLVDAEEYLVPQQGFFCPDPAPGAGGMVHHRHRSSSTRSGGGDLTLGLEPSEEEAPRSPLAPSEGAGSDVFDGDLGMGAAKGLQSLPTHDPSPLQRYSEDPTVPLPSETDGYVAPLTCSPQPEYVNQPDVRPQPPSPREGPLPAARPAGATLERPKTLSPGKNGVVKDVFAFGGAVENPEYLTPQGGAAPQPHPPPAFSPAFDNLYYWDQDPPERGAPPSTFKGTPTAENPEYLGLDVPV
Chain of ERBB3 (P21860 20-1342): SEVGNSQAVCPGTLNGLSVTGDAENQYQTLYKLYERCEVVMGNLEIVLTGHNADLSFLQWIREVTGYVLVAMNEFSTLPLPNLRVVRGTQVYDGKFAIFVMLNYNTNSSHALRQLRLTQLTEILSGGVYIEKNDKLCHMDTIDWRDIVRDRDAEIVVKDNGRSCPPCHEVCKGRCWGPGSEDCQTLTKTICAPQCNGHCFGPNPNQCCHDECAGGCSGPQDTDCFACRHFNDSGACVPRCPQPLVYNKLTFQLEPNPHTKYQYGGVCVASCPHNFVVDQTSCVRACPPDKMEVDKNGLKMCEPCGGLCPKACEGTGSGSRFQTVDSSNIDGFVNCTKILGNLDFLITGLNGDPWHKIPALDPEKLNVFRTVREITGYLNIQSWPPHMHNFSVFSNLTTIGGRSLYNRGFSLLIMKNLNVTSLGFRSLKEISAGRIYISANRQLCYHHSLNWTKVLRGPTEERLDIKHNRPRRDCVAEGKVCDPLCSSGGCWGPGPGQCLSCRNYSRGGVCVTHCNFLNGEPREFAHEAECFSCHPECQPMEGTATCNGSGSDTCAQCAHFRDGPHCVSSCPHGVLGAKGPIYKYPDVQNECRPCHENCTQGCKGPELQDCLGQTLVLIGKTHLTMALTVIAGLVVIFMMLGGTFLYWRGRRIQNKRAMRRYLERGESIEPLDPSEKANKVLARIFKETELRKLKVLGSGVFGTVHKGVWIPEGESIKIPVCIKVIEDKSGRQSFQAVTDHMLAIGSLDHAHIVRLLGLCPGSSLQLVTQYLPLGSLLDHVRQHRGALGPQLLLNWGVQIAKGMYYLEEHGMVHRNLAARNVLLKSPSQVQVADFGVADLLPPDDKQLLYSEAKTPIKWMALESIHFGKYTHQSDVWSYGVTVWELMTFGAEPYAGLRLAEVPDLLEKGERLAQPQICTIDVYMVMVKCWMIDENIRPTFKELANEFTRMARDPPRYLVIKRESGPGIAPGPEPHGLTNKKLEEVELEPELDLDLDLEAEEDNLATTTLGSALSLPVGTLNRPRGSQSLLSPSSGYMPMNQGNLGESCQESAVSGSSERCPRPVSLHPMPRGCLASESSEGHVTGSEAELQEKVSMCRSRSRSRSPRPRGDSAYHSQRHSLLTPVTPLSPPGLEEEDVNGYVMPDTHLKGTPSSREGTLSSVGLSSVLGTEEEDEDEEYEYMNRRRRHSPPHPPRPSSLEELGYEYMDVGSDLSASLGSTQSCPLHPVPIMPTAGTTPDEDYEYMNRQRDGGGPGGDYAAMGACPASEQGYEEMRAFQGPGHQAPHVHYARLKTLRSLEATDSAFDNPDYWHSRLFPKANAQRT
Chain of JNK3 (MAPK10) (P53779 whole entry): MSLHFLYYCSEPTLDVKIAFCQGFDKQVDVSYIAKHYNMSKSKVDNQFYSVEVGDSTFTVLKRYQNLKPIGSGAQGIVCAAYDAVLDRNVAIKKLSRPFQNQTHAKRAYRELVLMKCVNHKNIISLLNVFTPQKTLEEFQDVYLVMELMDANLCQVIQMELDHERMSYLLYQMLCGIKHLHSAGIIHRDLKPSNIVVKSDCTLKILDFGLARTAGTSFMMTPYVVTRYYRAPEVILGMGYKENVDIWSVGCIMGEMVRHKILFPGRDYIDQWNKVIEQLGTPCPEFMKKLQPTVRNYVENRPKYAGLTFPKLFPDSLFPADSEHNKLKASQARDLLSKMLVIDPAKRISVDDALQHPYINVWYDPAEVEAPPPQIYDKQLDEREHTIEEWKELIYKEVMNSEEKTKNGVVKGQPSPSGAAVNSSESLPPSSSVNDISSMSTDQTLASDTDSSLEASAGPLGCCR
T6 sequence (P52333 822-1111 limits assumed): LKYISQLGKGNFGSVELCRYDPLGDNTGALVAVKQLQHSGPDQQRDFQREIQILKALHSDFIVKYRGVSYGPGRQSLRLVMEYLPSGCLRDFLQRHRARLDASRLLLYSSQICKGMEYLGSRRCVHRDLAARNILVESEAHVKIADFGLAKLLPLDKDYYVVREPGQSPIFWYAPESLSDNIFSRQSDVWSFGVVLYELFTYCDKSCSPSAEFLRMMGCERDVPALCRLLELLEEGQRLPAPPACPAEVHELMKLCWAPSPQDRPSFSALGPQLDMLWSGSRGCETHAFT
Chain of JNK2 (MAPK9) (P45984 whole entry): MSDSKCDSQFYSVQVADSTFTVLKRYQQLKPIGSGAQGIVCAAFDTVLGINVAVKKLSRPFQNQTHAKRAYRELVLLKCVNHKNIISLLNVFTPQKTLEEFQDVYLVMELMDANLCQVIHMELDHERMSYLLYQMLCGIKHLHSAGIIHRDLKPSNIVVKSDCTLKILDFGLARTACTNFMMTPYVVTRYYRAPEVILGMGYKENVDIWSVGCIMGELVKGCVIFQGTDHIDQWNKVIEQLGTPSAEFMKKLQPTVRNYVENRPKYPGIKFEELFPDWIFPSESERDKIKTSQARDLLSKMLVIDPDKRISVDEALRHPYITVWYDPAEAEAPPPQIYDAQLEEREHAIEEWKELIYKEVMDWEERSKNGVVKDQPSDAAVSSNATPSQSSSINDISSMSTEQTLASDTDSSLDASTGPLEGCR

SMILES | EGFR binding POC [1] | ERBB2 binding POC [2] | TEC binding POC [3] | TXK binding POC [4] | ERBB4 binding POC [5] | JNK1 (MAPK8) POC [6] | JNK3 (MAPK10) POC [7] | BLK binding POC [8] | ITK binding POC [9] | ERBB3 binding POC [10] | JNK2 (MAPK9) POC [11] | BTK binding POC [12] | MKK7 binding POC [13] | JAK3 binding POC [14] | BMX binding POC [15] | other results
CC#CC(=O)N[C@H]1CCCN(c2c(F)cc(C(N)=O)c3[nH]c(C)c(C)c23)C1 [Branebrutinib] | 77% of control | 100% of control | 7.8% of control | 2% of control | 75% of control | 82% of control | 89% of control | 3.2% of control | 17% of control | 75% of control | 89% of control | 0% of control | 100% of control | 48% of control |  | 
C=CC(=O)N1CCC(CNc2ncnc(N)c2-c2ccc(Oc3ccccc3)cc2)CC1 [Evobrutinib] | 88% of control | 91% of control | 10% of control | 23% of control | 32% of control | 95% of control | 100% of control |  |  | 97% of control | 100% of control |  | 100% of control | 100% of control |  | 
C=CC(=O)N(C)CCOc1c(N)ncnc1-c1cc(F)cc(NC(=O)c2ccc(C3CC3)cc2F)c1C [Remibrutinib] | 99% of control | 100% of control | 20% of control | 97% of control | 100% of control | 93% of control | 100% of control | 100% of control | 97% of control | 100% of control | 99% of control | 0.15% of control | 100% of control | 100% of control |  | off-target hits [17]: one; pIC50 [18]: 8.89

The next lines start with results.

EGFR binding POC [1] | ERBB2 binding POC [2] | TEC binding POC [3] | TXK binding POC [4] | ERBB4 binding POC [5] | JNK1 (MAPK8) POC [6] | JNK3 (MAPK10) POC [7] | BLK binding POC [8] | ITK binding POC [9] | ERBB3 binding POC [10] | JNK2 (MAPK9) POC [11] | BTK binding POC [12] | MKK7 binding POC [13] | JAK3 binding POC [14] | BMX binding POC [15] | SMILES | other results
 | 100% of control |  | 34% of control | 96% of control | 100% of control | 100% of control | 52% of control | 100% of control | 88% of control | 100% of control |  | 100% of control | 89% of control | 27% of control | C=CC(=O)N1CCC(c2ccc(C(N)=O)c(-c3ccc(Oc4ccccc4)cc3)n2)CC1 [Orelabrutinib] | CR [16]: 27.4%; PR [16]: 53.8%; overall response rate [16]: 81.1%
 | 0% of control |  | 1.1% of control |  | 96% of control | 90% of control | 0.05% of control | 67% of control | 0.8% of control | 83% of control |  | 19% of control | 36% of control | 11% of control | C=CC(=O)N1CCC[C@@H](n2c(=O)n(-c3ccc(Oc4ccccc4)cc3)c3c(N)nccc32)C1 [Tolebrutinib] | MKK7 binding POC ([13]; listed as tolebrutinib): weak hit
